Assays:
tumor bearing mice = details: cited from earlier work
[1] = system: animals undergoing experimental autoimmune encephalomyelitis (EAE); details: mouse, in vivo; cited from earlier work
human arginase I (ARG I) = target: T1, human arginase I (ARG I) (Homo sapiens, UniProt P05089); test: Inhibition of arginase I, spectrophotometric urea assay at 530 nm; format: biochemical; details: potency rank 1-5; pH 7.4, 37° C., 60 minutes
T1 sequence (P05089 1-322): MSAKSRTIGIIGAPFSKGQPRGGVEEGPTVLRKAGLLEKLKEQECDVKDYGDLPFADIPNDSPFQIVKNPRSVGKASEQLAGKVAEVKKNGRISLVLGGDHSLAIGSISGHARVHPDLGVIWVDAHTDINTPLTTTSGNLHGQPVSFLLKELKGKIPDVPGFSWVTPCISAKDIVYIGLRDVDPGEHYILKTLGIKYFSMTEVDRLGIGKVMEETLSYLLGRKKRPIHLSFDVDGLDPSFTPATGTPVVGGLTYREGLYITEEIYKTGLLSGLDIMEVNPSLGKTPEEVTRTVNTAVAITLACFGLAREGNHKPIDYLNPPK
Protocol: (§1) The assay established the concentration of inhibitor that is required to reduce arginase activity by 50% (IC50).
(§2) Inhibition of arginase I (ARG I) and arginase II (ARG II) by the inventive compounds is followed spectrophotometrically at 530 nm. The compound to be tested is dissolved in DMSO at an initial concentration 50-fold greater than its final concentration in the cuvette. 10 μl of the stock solution is diluted in 90 μl of the assay buffer that comprises 0.1M sodium phosphate buffer containing 130 mM NaCl, pH 7.4, to which is added ovalbumin (OVA) at a concentration of 1 mg/ml. Solutions of arginase I and II are prepared in 100 mM sodium phosphate buffer, pH 7.4 containing 1 mg/ml of OVA to give an arginase stock solution at a final concentration of 100 ng/ml.
(§3) To each well of a 96-well microtiter plate is add 40 μl of enzyme, 10 μl of an inventive compound and 10 μl of enzyme substrate (L-arginine+manganese sulfate). For wells that are used as positive controls, only the enzyme and its substrate are added, while wells used as negative controls contain only manganese sulfate.
(§4) After incubating the microtiter plate at 37° C. for 60 minutes, 150 μl of a urea reagent obtained by combining equal proportions (1:1) of reagents A and B is added to each well of the microtiter plate to stop the reaction. The urea reagent is made just before use by combining Reagent A (10 mM o-phthaldialdehyde, and 0.4% polyoxyethylene (23) lauryl ether (w/v) in 1.8 M sulfuric acid) with Reagent B (1.3 mM primaquine diphosphate, 0.4% polyoxyethylene (23) lauryl ether (w/v), 130 mM boric acid in 3.6 M sulfuric acid). After quenching the reaction mixture, the microtiter plate is allowed to stand for an additional 10 minutes at room temperature to allow color development. The inhibition of arginase is computed by measuring the optical density (OD) of the reaction mixture at 530 nm and normalizing the OD value to percent inhibition observed in the control. The normalized OD is then used to generate a dose-response curve by plotting the normalized OD values against log [concentration] and using regression analysis to compute the IC50 values.

arginase II (ARG II) = target: T2, arginase II (ARG II) (Homo sapiens, UniProt P78540); test: Inhibition of arginase II, spectrophotometric urea assay at 530 nm; format: biochemical; details: potency rank 1-5; pH 7.4, 37° C., 60 minutes
T2 sequence (P78540 23-354): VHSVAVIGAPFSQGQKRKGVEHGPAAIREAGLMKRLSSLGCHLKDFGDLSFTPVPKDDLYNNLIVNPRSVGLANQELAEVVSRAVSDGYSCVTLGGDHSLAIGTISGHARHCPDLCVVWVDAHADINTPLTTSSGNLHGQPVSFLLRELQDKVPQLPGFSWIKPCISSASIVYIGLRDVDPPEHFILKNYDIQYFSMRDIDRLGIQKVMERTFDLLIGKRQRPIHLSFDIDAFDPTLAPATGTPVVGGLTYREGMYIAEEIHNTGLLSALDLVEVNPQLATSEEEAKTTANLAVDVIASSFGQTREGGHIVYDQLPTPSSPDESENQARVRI
Protocol: as §1, §2, §3, §4

bacterial arginase = details: cited from earlier work
murine chronic model = details: murine chronic asthma model; cited from earlier work
[2] = system: spontaneously hypertensive rats; details: cited from earlier work

What does the source list for `O=c1[nH]cc(F)c(=O)[nH]1` [5-Fluorouracil]?
MDSC immunesuppression (tumor bearing mice): eliminates; tumor growth (tumor bearing mice): delayed tumor growth

With `NC(CCCCB(O)O)C(=O)O` (stereo not shown) [ABH, amino-6-boronohexanoic acid] as the molecule, how does the “severity of EAE versus control animals” value [1] read?
The value was “much milder form of EAE”.

Which results are given for `N[C@@]1(C(=O)O)C[C@@H](CNCc2ccccc2)C[C@@H]1CCCB(O)O` [Example 1, (1S,2S,4S)-1-amino-4-((benzylamino)methyl)-2-(3-boronopropyl)cyclopentanecarboxylic acid]?
IC50 (human arginase I (ARG I)): 0.026 to 0.1 µM; IC50 (arginase II (ARG II)): 0.026 to 0.1 µM

What does the source list for `N[C@@]1(C(=O)O)C[C@@H](CNCc2ccc(-c3ccc(Cl)cc3)cc2)C[C@@H]1CCCB(O)O` [Example 2, (1S,2S,4S)-1-amino-2-(3-boronopropyl)-4-((((4′-chloro-[1,1′-biphenyl]-4-yl)methyl)amino)methyl)cyclopentanecarboxylic acid]?
IC50 (human arginase I (ARG I)): 0.026 to 0.1 µM; IC50 (arginase II (ARG II)): 0.026 to 0.1 µM

For `N[C@@]1(C(=O)O)C[C@@H](CNC2Cc3ccccc3C2)C[C@@H]1CCCB(O)O` [Example 3, (1S,2S,4S)-1-amino-2-(3-boronopropyl)-4-(((2,3-dihydro-1H-inden-2-yl)amino)methyl)cyclopentanecarboxylic acid], which IC50 (human arginase I (ARG I)) is on record?
Its IC50 is 0.026 to 0.1 µM.

And the IC50 (arginase II (ARG II))?
Its IC50 is 0.101 to 0.5 µM.

With `N[C@@]1(C(=O)O)C[C@@H](CNC2CCc3ccccc3C2)C[C@@H]1CCCB(O)O` (stereo partly drawn) [Example 4, (1S,2S,4S)-1-amino-2-(3-boronopropyl)-4-(((1,2,3,4-tetrahydronaphthalen-2-yl)amino)methyl)cyclopentanecarboxylic acid] as the molecule, how does the IC50 (human arginase I (ARG I)) read?
Its IC50 is 0.026 to 0.1 µM.

What about the IC50 (arginase II (ARG II)) of the same molecule?
Its IC50 is 0.026 to 0.1 µM.

Which IC50 (human arginase I (ARG I)) does the source give for `N[C@@]1(C(=O)O)C[C@@H](CNC2CCC2)C[C@@H]1CCCB(O)O` [Example 5, (1S,2S,4S)-1-amino-2-(3-boronopropyl)-4-((cyclobutylamino)methyl)cyclopentanecarboxylic acid] here?
The IC50 was 0.026 to 0.1 µM.

What about the IC50 (arginase II (ARG II)) of the same molecule?
Its IC50 is 0.101 to 0.5 µM.

Which results are given for `N[C@@]1(C(=O)O)C[C@@H](CN(C2CCC2)C2CCC2)C[C@@H]1CCCB(O)O` [Example 6, (1S,2S,4S)-1-amino-2-(3-boronopropyl)-4-((dicyclobutylamino)methyl)cyclopentanecarboxylic acid]?
IC50 (human arginase I (ARG I)): 0.101 to 0.5 µM; IC50 (arginase II (ARG II)): 0.101 to 0.5 µM

With `CN[C@@]1(C(=O)O)CCC[C@@H]1CCCB(O)O` [Example 7, (1S,2S)-2-(3-boronopropyl)-1-(methylamino) cyclopentanecarboxylic acid] as the molecule, how does the IC50 (human arginase I (ARG I)) read?
The IC50 was 0.501 to 1.5 µM.

And the IC50 (arginase II (ARG II))?
Its IC50 is 0.501 to 1.5 µM.

Which IC50 (human arginase I (ARG I)) does the source give for `N[C@@]1(C(=O)O)CCC[C@@H]1CCCB(O)O` [Example 8, (1S,2S)-1-amino-2-(3-boronopropyl)cyclopentanecarboxylic acid] here?
The IC50 was 0.101 to 0.5 µM.

And the IC50 (arginase II (ARG II))?
The IC50 was 0.101 to 0.5 µM.

Which IC50 (human arginase I (ARG I)) does the source give for `N[C@@]1(C(=O)O)CNC[C@@H]1CCCB(O)O` [Example 9, (3R,4S)-3-amino-4-(3-boronopropyl)pyrrolidine-3-carboxylic acid] here?
The IC50 was 0.101 to 0.5 µM.

And the IC50 (arginase II (ARG II))?
The IC50 was 0.101 to 0.5 µM.

For `NC(=NCCC[C@H](N)C(=O)O)NO` [NOHA], which “CD3 expression on T-cells” value (bacterial arginase) is on record?
The value was “reestablished”.

What about the “production of NO by macrophages” value (bacterial arginase) of the same molecule?
Its value is “enhanced”.

With `N[C@@H](CSCCB(O)O)C(=O)O` [S-(2-boronoethyl)-L-cysteine] as the molecule, how does the “methacholine induced responsiveness of the central airways” value (murine chronic model) read?
The value was “attenuated”.

For `Nc1ccn([C@@H]2O[C@H](CO)[C@@H](O)C2(F)F)c(=O)n1` [gemcitabine], which MDSC immunesuppression (tumor bearing mice) is on record?
The MDSC immunesuppression was “eliminates”.

And the tumor growth (tumor bearing mice)?
Its tumor growth is “delayed tumor growth”.

For `N=C(NO)NCC[C@H](N)C(=O)O` [nor-NOHA, N^ω-hydroxy-nor-L-arginine], which “vascular response of resistance vessels to blood flow and pressure” value ([2]; spontaneously hypertensive animals) is on record?
Its value is “improved”.

And the blood pressure ([2]; spontaneously hypertensive rats/animals)?
Its blood pressure is “lowered blood pressure”.

Source: patent US9200011B2, “Ring constrained analogs as arginase inhibitors” (Mars, Incorporated, priority 2012, dated 2015)
